Type in all cases: functional
Assay [1] deals with Staphylococcus aureus. Briefly: Antibacterial activity against heterogeneous vancomycin-intermediate resistant Staphylococcus aureus Mu3 ATCC 700698 assessed as zone of inhibition by disc diffusion method. Also: test concentration or dose not given here. On the technique in general: A growth-free zone around the sample is the usual read-out of agar diffusion tests.
The test system of assay [2] is Staphylococcus aureus. Briefly: Antibacterial activity against hospital acquired methicillin-resistant Staphylococcus aureus ATCC 43300 assessed as zone of inhibition by disc diffusion method. Also: test concentration or dose not given here.
Assay [3] concerns Staphylococcus aureus. Briefly: Antibacterial activity against community acquired methicillin-resistant Staphylococcus aureus BAA 1747 assessed as zone of inhibition by disc diffusion method. Also: test concentration or dose not given here.
Assay [4] deals with Acinetobacter baumannii. Briefly: Antibacterial activity against Acinetobacter baumannii ATCC 19606 assessed as zone of inhibition by disc diffusion method. Also: test concentration or dose not given here.
Assay [5] concerns Staphylococcus epidermidis. Briefly: Antibacterial activity against Staphylococcus epidermidis ATCC 14990 assessed as zone of inhibition by disc diffusion method. Also: test concentration or dose not given here.
A further assay deals with Klebsiella pneumoniae. In words: Antibacterial activity against multidrug-resistant Klebsiella pneumoniae ATCC 700603 assessed as zone of inhibition by disc diffusion method. Also: test concentration or dose not given here.
The subject of another assay is Bacillus anthracis. In words: Antibacterial activity against Bacillus anthracis Sterne 34F2 assessed as zone of inhibition by disc diffusion method.
Another assay deals with Enterococcus faecium. In words: Antibacterial activity against vancomycin-resistant Enterococcus faecium ATCC 700221 assessed as zone of inhibition by disc diffusion method. Also: test concentration or dose not given here.
The subject of a further assay is Enterococcus faecalis. In words: Antibacterial activity against vancomycin-susceptible Enterococcus faecalis ATCC 29212 assessed as zone of inhibition by disc diffusion method. Also: test concentration or dose not given here.
Assay [6] deals with Staphylococcus aureus. Briefly: Antibacterial activity against vancomycin-intermediate resistant Staphylococcus aureus Mu50 ATCC 700699 assessed as zone of inhibition by disc diffusion method. Also: test concentration or dose not given here.
The test system of another assay is Escherichia coli. In words: Antibacterial activity against beta-lactam resistant Escherichia coli BAA 2326 assessed as zone of inhibition by disc diffusion method. Also: test concentration or dose not given here.
In the next assay the test system is Pseudomonas aeruginosa. In words: Antibacterial activity against Pseudomonas aeruginosa ATCC 15422 assessed as zone of inhibition by disc diffusion method. Also: test concentration or dose not given here.
Assay [7] concerns Staphylococcus aureus. In words: Antibacterial activity against vancomycin-resistant Staphylococcus aureus HIP11714 assessed as zone of inhibition by disc diffusion method. Also: test concentration or dose not given here.
For assay [8], the system named is Staphylococcus aureus. Briefly: Antibacterial activity against methicillin-susceptible Staphylococcus aureus ATCC 25923 assessed as zone of inhibition by disc diffusion method. Also: test concentration or dose not given here.
Another assay concerns Enterobacter cloacae. In words: Antibacterial activity against Enterobacter cloacae ATCC 23355 assessed as zone of inhibition by disc diffusion method. Also: test concentration or dose not given here.
Assay [9] has as its system Acinetobacter baumannii. In words: Antibacterial activity against multidrug-resistant Acinetobacter baumannii BAA 1605 assessed as zone of inhibition by disc diffusion method. Also: test concentration or dose not given here.

Data on eight compounds can be found in ChEMBL document CHEMBL4715813, “Allicin-inspired pyridyl disulfides as antimicrobial agents for multidrug-resistant Staphylococcus aureus” (Eur J Med Chem, 2018).

Regarding `c1ccc(CSSc2ccccn2)cc1`, the “diameter of the inhibition zone (DIZ)” value stood at 19 mm in the assay with Staphylococcus aureus [1]; 28 mm in the assay on Staphylococcus aureus [2]; 20 mm in the assay on Staphylococcus aureus [3]; 9 mm in the assay with Acinetobacter baumannii [4]; 38 mm in assay [5]; 0 mm in the assay on Klebsiella pneumoniae. Further, the “diameter of the inhibition zone (DIZ)” value in the assay with Bacillus anthracis is 38 mm; in the assay on Enterococcus faecium it was 14 mm; in the assay with Enterococcus faecalis, 14 mm; in the assay with Staphylococcus aureus [6] it was 23 mm; with Escherichia coli, 0 mm; with Pseudomonas aeruginosa, 0 mm. Further, the “diameter of the inhibition zone (DIZ)” value with Staphylococcus aureus [7] is 30 mm; with Staphylococcus aureus [8] it was 26 mm; in the assay with Enterobacter cloacae, 0 mm; in the assay with Acinetobacter baumannii [9], 0 mm.
For `CC(C)SSc1ccccn1`, the “diameter of the inhibition zone (DIZ)” value is given as 0 mm with Staphylococcus aureus [1]; 0 mm in the assay on Staphylococcus aureus [2]; 0 mm with Staphylococcus aureus [3]; 0 mm in the assay on Acinetobacter baumannii [4]; 13 mm in assay [5]; 0 mm in the assay on Klebsiella pneumoniae. For the same compound, the “diameter of the inhibition zone (DIZ)” value in the assay on Bacillus anthracis, with Enterococcus faecium, with Enterococcus faecalis, with Staphylococcus aureus [6], in the assay on Escherichia coli and in the assay on Pseudomonas aeruginosa was 0 mm throughout. Further, the “diameter of the inhibition zone (DIZ)” value in the assay with Staphylococcus aureus [7], with Staphylococcus aureus [8], in the assay on Enterobacter cloacae and in the assay with Acinetobacter baumannii [9] was 0 mm in each case.
As for `c1ccc(SSC2CCCC2)nc1`, the “diameter of the inhibition zone (DIZ)” value is listed as 11 mm in the assay on Staphylococcus aureus [1]; 14 mm in the assay with Staphylococcus aureus [2]; 16 mm with Staphylococcus aureus [3]; 0 mm in the assay with Acinetobacter baumannii [4]; 25 mm in assay [5]; 0 mm in the assay with Klebsiella pneumoniae. Moreover, the “diameter of the inhibition zone (DIZ)” value in the assay with Bacillus anthracis came to 22 mm; in the assay on Enterococcus faecium it was 0 mm; in the assay on Enterococcus faecalis it was 0 mm; with Staphylococcus aureus [6], 0 mm; in the assay with Escherichia coli, 0 mm; with Pseudomonas aeruginosa, 0 mm. The “diameter of the inhibition zone (DIZ)” value in the assay with Staphylococcus aureus [7] is 0 mm; in the assay with Staphylococcus aureus [8] it was 9 mm; in the assay on Enterobacter cloacae it was 0 mm; in the assay with Acinetobacter baumannii [9], 0 mm.
`CC(C)C(C)SSc1ccccn1` (stereo not drawn): the “diameter of the inhibition zone (DIZ)” value with Staphylococcus aureus [1] was determined as 0 mm; in the assay on Staphylococcus aureus [2], 0 mm; in the assay on Staphylococcus aureus [3] it was 0 mm; in the assay with Acinetobacter baumannii [4], 0 mm; in [5] it was 24 mm; in the assay with Klebsiella pneumoniae, 0 mm. Also, the “diameter of the inhibition zone (DIZ)” value in the assay with Bacillus anthracis stood at 21 mm; in the assay with Enterococcus faecium it was 0 mm; with Enterococcus faecalis it was 0 mm; in the assay on Staphylococcus aureus [6] it was 0 mm; in the assay with Escherichia coli, 0 mm; with Pseudomonas aeruginosa, 0 mm. Also, the “diameter of the inhibition zone (DIZ)” value in the assay with Staphylococcus aureus [7], in the assay with Staphylococcus aureus [8], with Enterobacter cloacae and in the assay with Acinetobacter baumannii [9] was 0 mm each time.
Regarding `c1ccc(SSC2CCCCC2)nc1`, the “diameter of the inhibition zone (DIZ)” value is reported as 18 mm with Staphylococcus aureus [1]; 12 mm with Staphylococcus aureus [2]; 14 mm with Staphylococcus aureus [3]; 0 mm in the assay with Acinetobacter baumannii [4]; 24 mm in [5]; 0 mm in the assay with Klebsiella pneumoniae. Also, the “diameter of the inhibition zone (DIZ)” value in the assay on Bacillus anthracis is on record as 26 mm; in the assay on Enterococcus faecium, 0 mm; with Enterococcus faecalis, 0 mm; in the assay with Staphylococcus aureus [6] it was 0 mm; in the assay with Escherichia coli, 0 mm; with Pseudomonas aeruginosa it was 0 mm. Further, the “diameter of the inhibition zone (DIZ)” value in the assay with Staphylococcus aureus [7] stood at 0 mm; in the assay on Staphylococcus aureus [8] it was 11 mm; in the assay with Enterobacter cloacae, 0 mm; with Acinetobacter baumannii [9], 0 mm.
Regarding `CCCSSc1ccccn1`, the “diameter of the inhibition zone (DIZ)” value in the assay with Staphylococcus aureus [1] amounted to 0 mm; in the assay with Staphylococcus aureus [2], 0 mm; in the assay with Staphylococcus aureus [3], 0 mm; with Acinetobacter baumannii [4], 12 mm; in assay [5], 30 mm; in the assay with Klebsiella pneumoniae, 0 mm. Also, the “diameter of the inhibition zone (DIZ)” value in the assay on Bacillus anthracis is reported as 33 mm; in the assay with Enterococcus faecium, 0 mm; in the assay with Enterococcus faecalis it was 11 mm; with Staphylococcus aureus [6], 0 mm; with Escherichia coli, 0 mm; in the assay on Pseudomonas aeruginosa, 0 mm. Also, the “diameter of the inhibition zone (DIZ)” value was determined as 0 mm in the assay on Staphylococcus aureus [7], 0 mm in the assay with Staphylococcus aureus [8], 9 mm in the assay on Enterobacter cloacae and 0 mm with Acinetobacter baumannii [9].
Consider `CCCCSSc1ccccn1`, for which the “diameter of the inhibition zone (DIZ)” value in the assay on Staphylococcus aureus [1] is reported as 0 mm; with Staphylococcus aureus [2], 0 mm; in the assay on Staphylococcus aureus [3], 0 mm; in the assay with Acinetobacter baumannii [4], 0 mm; in assay [5] it was 22 mm; with Klebsiella pneumoniae it was 0 mm. Besides, the “diameter of the inhibition zone (DIZ)” value in the assay with Bacillus anthracis worked out at 48 mm; with Enterococcus faecium, 0 mm; in the assay with Enterococcus faecalis it was 15 mm; with Staphylococcus aureus [6] it was 0 mm; in the assay with Escherichia coli, 0 mm; in the assay with Pseudomonas aeruginosa it was 0 mm. For the same compound, the “diameter of the inhibition zone (DIZ)” value is listed as 0 mm in the assay on Staphylococcus aureus [7], 0 mm with Staphylococcus aureus [8], 9 mm with Enterobacter cloacae and 0 mm with Acinetobacter baumannii [9].
`CSSc1ccccn1`: the “diameter of the inhibition zone (DIZ)” value is 12 mm in the assay on Staphylococcus aureus [1]; 25 mm in the assay on Staphylococcus aureus [2]; 21 mm in the assay on Staphylococcus aureus [3]; 21 mm in the assay on Acinetobacter baumannii [4]; 21 mm in assay [5]; 0 mm in the assay on Klebsiella pneumoniae. In addition, the “diameter of the inhibition zone (DIZ)” value in the assay with Bacillus anthracis is reported as 48 mm; in the assay with Enterococcus faecium, 0 mm; in the assay with Enterococcus faecalis it was 23 mm; in the assay on Staphylococcus aureus [6], 13 mm; with Escherichia coli it was 12 mm; in the assay on Pseudomonas aeruginosa it was 0 mm. Moreover, the “diameter of the inhibition zone (DIZ)” value is reported as 12 mm in the assay with Staphylococcus aureus [7], 20 mm with Staphylococcus aureus [8], 10 mm with Enterobacter cloacae and 15 mm with Acinetobacter baumannii [9].
